Test system: HCT116 cells
Assay: In vitro activity on HCT116 cells in culture
Assay type: cell-based, human
Details: up to 30 μM

Cc1cc(-c2cncc(C(O)C(F)(F)F)c2)nc2c1C(=O)N(c1cnn(CC(F)F)c1)C2(C)C (stereo not shown) [LPT-723]
activity in vitro on HCT116 cells in culture: no activity
